Where “and” joins values, the source holds several entries; their conditions need not be identical. Identical values can stand only once. Entries after “also recorded” stand apart in the source; their conditions may differ. Like-named read-outs stand apart in the source and are kept apart here.
How the values were obtained:
[1] = tested on: human multiple myeloma LP1
[2] = tested on: human multiple myeloma RPMI-8226
murine CD38 = target: T1, murine CD38 (Mus musculus, UniProt P56528); assay: cross-reactivity of the antibody with murine CD38; format: binding
T1 sequence (P56528 1-304): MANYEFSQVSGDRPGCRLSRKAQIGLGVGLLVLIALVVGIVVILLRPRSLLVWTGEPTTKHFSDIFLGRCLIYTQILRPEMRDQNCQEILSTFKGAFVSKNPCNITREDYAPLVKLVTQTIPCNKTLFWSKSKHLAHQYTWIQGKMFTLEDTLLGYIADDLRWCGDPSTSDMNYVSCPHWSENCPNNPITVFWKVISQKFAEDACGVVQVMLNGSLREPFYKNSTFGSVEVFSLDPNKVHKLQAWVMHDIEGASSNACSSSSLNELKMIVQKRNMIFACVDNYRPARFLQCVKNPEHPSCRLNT

[3] = melphalan IV 3.8 mg/kg/inj (total 15.2), days 12, 15, 18, 21
[4] = melphalan IV 6.2 mg/kg/inj (total 24.8), days 12, 15, 18, 21
[5] = melphalan IV 10.0 mg/kg/inj (total 40.0), days 12, 15, 18, 21
[6] = melphalan IV 16.1 mg/kg/inj (total 48.3), treatments stopped on day 18
[7] = melphalan alone IV, total injected dose 40 mg/kg
[8] = melphalan IV 3.8 mg/kg/inj (total 15.2), days 16, 19, 22, 25
[9] = melphalan IV 6.2 mg/kg/inj (total 24.8), days 16, 19, 22, 25
[10] = melphalan IV 10.0 mg/kg/inj (total 40.0), days 16, 19, 22, 25
[11] = hu38SB19 IV 40.0 mg/kg/inj (total 160.0), days 12, 15, 18, 21

Compound: N[C@@H](Cc1ccc(N(CCCl)CCCl)cc1)C(=O)O [melphalan]
- Comments [1, 3]: Moderately active
- T-C in days (1000 mg) [1, 3]: 4.1 days
- log10 cell kill gross [1, 3]: 0.8
- % BWC at nadir (day) ([1]; melphalan IV 3.8 mg/kg/inj (total 15.2), days 12, 15, 18, 21, nadir day 22): +7.0%
- Comments [1, 4]: Highly active
- T-C in days (1000 mg) [1, 4]: 17.4 days
- log10 cell kill gross [1, 4]: 3.5
- % BWC at nadir (day) ([1]; melphalan IV 6.2 mg/kg/inj (total 24.8), days 12, 15, 18, 21, nadir day 24): −3.0%
- T-C in days (1000 mg) [1, 5]: 46.5 days
- log10 cell kill gross [1, 5]: 9.3
- % BWC at nadir (day) ([1]; melphalan IV 10.0 mg/kg/inj (total 40.0), days 12, 15, 18, 21, nadir day 24): −14.6%
- Comments [1, 6]: Toxic
- drug-related deaths [1, 6]: 4/5
- % BWC at nadir (day) ([1]; melphalan IV 16.1 mg/kg/inj (total 48.3), treatments stopped on day 18, nadir day 22): −33.6%
- body weight loss at nadir ([1]; melphalan alone 16.1 mg/kg/injection, nadir on day 22): 33.6%
- HNTD [1, 7]: 10 mg/kg/inj
- Comments [2, 8]: Moderately active
- Drug death [2, 8]: 0/5
- T-C in days (1000 mg) [2, 8]: 8.5 days
- log10 cell kill [2, 8]: 0.8
- % BWC at nadir (day) ([2]; melphalan IV 3.8 mg/kg/inj (total 15.2), days 16, 19, 22, 25, nadir day 17): −1.2%
- Comments [2, 9]: Active
- Drug death [2, 9]: 0/5
- T-C in days (1000 mg) [2, 9]: 9.5 days
- log10 cell kill [2, 9]: 0.9
- % BWC at nadir (day) ([2]; melphalan IV 6.2 mg/kg/inj (total 24.8), days 16, 19, 22, 25, nadir day 32): −3.5%
- Drug death [2, 10]: 0/5
- T-C in days (1000 mg) [2, 10]: 20.0 days
- log10 cell kill [2, 10]: 1.9
- Comments ([2]; melphalan IV 10.0 mg/kg/inj (total 40.0), days 16, 19, 22, 25, 10 mg/kg): HNTD, active
- % BWC at nadir (day) ([2]; melphalan IV 10.0 mg/kg/inj (total 40.0), days 16, 19, 22, 25, nadir day 26): −12.2%
- Comments ([2]; melphalan IV 16.1 mg/kg/inj (total 32.2), days 16, 19): Toxic
- Drug death ([2]; melphalan IV 16.1 mg/kg/inj (total 32.2), days 16, 19, 16.1 mg/kg): 3 and 3/5
- % BWC at nadir (day) ([2]; melphalan IV 16.1 mg/kg/inj (total 32.2), days 16, 19, nadir day 26): −33.4%
- highest nontoxic dose (HNTD) [2, 7]: 10 mg/kg/inj

Compound: hu38SB19: humanized version of anti-CD38 monoclonal antibody 38SB19; heavy chain CDRs SEQ ID NOS: 13, 81, 15, light chain CDRs SEQ ID NOS: 16, 17, 18
- T-C in days (1000 mg) [1, 11]: 1.1 days
- log10 cell kill gross [1, 11]: 0.2
- Comments ([1]; hu38SB19 IV 40.0 mg/kg/inj (total 160.0), days 12, 15, 18, 21, 40 mg/kg): not active; also recorded: HDT-inactive
- tolerability ([1]; mouse, in vivo, 40 mg/kg): well tolerated
- % BWC at nadir (day) ([1]; mouse, in vivo, iv, 40 mg/kg): +15.9%
- cross-reactivity with murine CD38 (murine CD38): lack of cross-reactivity
- tolerability ([2]; mouse, in vivo, 40 mg/kg): well tolerated
- % BWC at nadir (day) ([2]; mouse, in vivo, iv, 40 mg/kg): +5.3%
- Comments ([2]; mouse, in vivo, iv, 40 mg/kg): not active; also recorded: HDT-inactive
- Drug death ([2]; mouse, in vivo, iv, 40 mg/kg): 0/5
- T-C in days (1000 mg) ([2]; mouse, in vivo, iv, 40 mg/kg): 5.2 days
- log10 cell kill ([2]; mouse, in vivo, iv, 40 mg/kg): 0.5
